Like-named read-outs stand apart in the source and are kept apart here.
What was measured:
[1] = molecular target: T1, Oseltamivir-resistant A/Bethesda/956/2006 neuraminidase (K at 292) (Influenza A virus (H3N2), UniProt F1KL32, R292K); type: biochemical; settings: pH 6.5
[2] = molecular target: T2, Oseltamivir-resistant A/Texas/23/2012 neuraminidase (H275Y) (Influenza A virus (H1N1pdm09), UniProt R4SI91, H275Y); type: biochemical, Pandemic influenza A(H1N1) 2009 virus; settings: pH 6.5
[3] = molecular target: T1, Oseltamivir-resistant A/Bethesda/956/2006 neuraminidase (K at 292); type: biochemical; settings: pH 5.1
[4] = molecular target: T2, Oseltamivir-resistant A/Texas/23/2012 neuraminidase (H275Y); type: biochemical, Pandemic influenza A(H1N1) 2009 virus; settings: pH 5.1

With `CCC(CC)[C@H](NC(C)=O)[C@@H]1[C@H](O)[C@@H](C(=O)O)C[C@H]1N=C(N)N` [Peramivir, peramivir] the “Fold change in IC50 compared with drug-sensitive subtype-specific control” value (“Fold change in IC50” for short) [1] was 16.27 (203) -fold, the IC50 [1] was 16.3 nM and the “Fold change in IC50” value [2] was 15.81 (264) -fold. The IC50 [2] was 15.8 nM, the “Fold change in IC50” value [3] was 8.58 (86) fold and the IC50 [3] was 8.58 nM. The “Fold change in IC50” value [4] was 30.17 (431) fold and the IC50 [4] was 30.2 nM.
